In publication PMC6586119, “Synthesis and biological evaluation of novel 8-substituted quinoline-2-carboxamides as carbonic anhydrase inhibitors” (Journal of Enzyme Inhibition and Medicinal Chemistry, 2019) one finds Ki data, which are given here for eight compounds.

Where two headings read alike, the source gives them in different places.

By Ki is commonly meant the dissociation constant of the complex between target and ligand, obtained from inhibition or displacement. Low values mean tighter binding, high ones weaker binding.

Test in all cases: stopped-flow CO2 hydration assay
What all share (type): biochemical

For assay [1], the target named is T1, hCA IV (Homo sapiens, UniProt P22748).
T1 construct: gene CA4
An excerpt: stopped-flow CO2 hydration assay on hCA IV

Assay [2] concerns the target T2, hCA I (Homo sapiens, UniProt P00915).
T2 construct: gene CA1; recombinant, cytosolic isoform
An excerpt: stopped-flow CO2 hydration assay on hCA I

For assay [3], the target named is T3, hCA II (Homo sapiens, UniProt P00918).
T3 construct: gene CA2; recombinant, cytosolic isoform
An excerpt:
stopped-flow CO2 hydration assay on hCA II

Setting [4] is: CO2 hydration, […] Hepes pH […] °C, […] Na2SO4 or NaClO4, […] min preincubation.

T1 sequence (P22748 19-284): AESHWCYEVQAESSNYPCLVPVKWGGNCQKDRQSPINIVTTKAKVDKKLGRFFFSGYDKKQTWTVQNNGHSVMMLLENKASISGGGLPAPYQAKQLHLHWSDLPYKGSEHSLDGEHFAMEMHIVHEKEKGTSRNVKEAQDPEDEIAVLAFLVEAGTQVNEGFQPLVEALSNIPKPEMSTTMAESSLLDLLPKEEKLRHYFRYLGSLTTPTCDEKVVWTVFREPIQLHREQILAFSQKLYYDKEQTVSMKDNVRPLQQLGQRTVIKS
T2 sequence (P00915 2-261): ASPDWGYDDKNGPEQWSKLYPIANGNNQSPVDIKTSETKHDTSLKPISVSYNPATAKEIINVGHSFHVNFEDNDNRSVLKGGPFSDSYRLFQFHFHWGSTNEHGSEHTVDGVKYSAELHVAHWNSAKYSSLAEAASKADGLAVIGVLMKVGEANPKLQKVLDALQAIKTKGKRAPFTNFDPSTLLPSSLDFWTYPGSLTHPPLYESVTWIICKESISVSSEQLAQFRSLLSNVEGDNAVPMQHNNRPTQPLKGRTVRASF

For the compound `NS(=O)(=O)c1ccc(NC(=O)c2ccc3cccc(OCc4ccc([N+](=O)[O-])cc4)c3n2)cc1` [5a, 8-((4-Nitrobenzyl)oxy)-N-(4-sulfamoylphenyl)quinoline-2-carboxamide], the Ki was 0.691 µM in assay [1], 0.641 µM in assay [2] and 0.0884 µM in assay [3].
For `NS(=O)(=O)c1ccc(NC(=O)c2ccc3cccc(OCc4ccccc4Br)c3n2)cc1` [5b, 8-((2-Bromobenzyl)oxy)-N-(4-sulfamoylphenyl)quinoline-2-carboxamide], in that order: 3.93 µM, 0.444 µM and 0.0857 µM.
For `NS(=O)(=O)c1ccc(NC(=O)c2ccc3cccc(OCc4ccccc4)c3n2)cc1` [5c, 8-(Benzyloxy)-N-(4-sulfamoylphenyl)quinoline-2-carboxamide], in that order: 6.41 µM, 5.29 µM and 8.34 µM.
For `Cc1cc(C)cc(COc2cccc3ccc(C(=O)Nc4ccc(S(N)(=O)=O)cc4)nc23)c1` [5d, 8-((3,5-Dimethylbenzyl)oxy)-N-(4-sulfamoylphenyl)quinoline-2-carboxamide], in that order: 6.76 µM, 8.13 µM and 8.76 µM.
As to `NS(=O)(=O)c1ccc(NC(=O)c2ccc3cccc(OCc4cccc(Cl)c4)c3n2)cc1` [5e, 8-((3-Chlorobenzyl)oxy)-N-(4-sulfamoylphenyl)quinoline-2-carboxamide], the values for the Ki in assay [1], in assay [2] and in assay [3] were 0.807 µM, 6.47 µM and 5.17 µM, respectively.
For `NS(=O)(=O)c1ccc(NC(=O)c2ccc3cccc(OCc4cc(F)ccc4F)c3n2)cc1` [5f, 8-((2,5-Difluorobenzyl)oxy)-N-(4-sulfamoylphenyl)quinoline-2-carboxamide], in that order: 0.787 µM, 6.56 µM and 0.957 µM.
For `C#CCOc1cccc2ccc(C(=O)Nc3ccc(S(N)(=O)=O)cc3)nc12` [5g, 8-(Prop-2-yn-1-yloxy)-N-(4-sulfamoylphenyl)quinoline-2-carboxamide], in that order: 0.657 µM, 6.91 µM and 5.11 µM.
For `COc1cccc2ccc(C(=O)Nc3ccc(S(N)(=O)=O)cc3)nc12` [5h, 8-Methoxy-N-(4-sulfamoylphenyl)quinoline-2-carboxamide], the Ki in assay [1] was 1.75 µM; in assay [2] (setting [4]), 0.0619 µM; in assay [3] (setting [4]), 0.033 µM.
